The supplement of paper PMC10307832

Key:
Test in all cases: relative viability (nuclei count vs DMSO), 5 days (fraction); higher = more cells survive
LK-2 = system: LK-2
How it was run: (§1)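 Medians of duplicate plates are given as relative viability. That measure is the nuclei count in treated wells divided by the count in vehicle wells. Counts were taken on 4× images of lung cancer cell lines in 1536-well plates, 5 days after pin-tool dosing the day after seeding with one drug alone or a fixed anchor-drug dose plus five library-drug doses (not always all listed) in √10 steps.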

NCI-H727 = system: NCI-H727
How it was run: as §1

BEN = system: BEN
How it was run: as §1

NCI-H520 = system: NCI-H520
How it was run: as §1

NCI-H322M = system: NCI-H322M
How it was run: as §1

HCC-15 = system: HCC-15
How it was run: as §1

EKVX = system: EKVX
How it was run: as §1

ABC-1 = system: ABC-1
How it was run: as §1

HCC-44 = system: HCC-44
How it was run: as §1

EMC-BAC-2 = system: EMC-BAC-2
How it was run: as §1

CAL-12T = system: CAL-12T
How it was run: as §1

NCI-H1651 = system: NCI-H1651
How it was run: as §1

NCI-H2023 = system: NCI-H2023
How it was run: as §1

NCI-H460 = system: NCI-H460
How it was run: as §1

NCI-H1563 = system: NCI-H1563
How it was run: as §1

NCI-H358 = system: NCI-H358
How it was run: as §1

201T = system: 201T
How it was run: as §1

PC-3 [JPC-3] = system: PC-3 [JPC-3]
How it was run: as §1

COR-L 105 = system: COR-L 105
How it was run: as §1

NCI-H838 = system: NCI-H838
How it was run: as §1

LU99A = system: LU99A
How it was run: as §1

CN1CCN(CCOc2cc(OC3CCOCC3)c3c(Nc4c(Cl)ccc5c4OCO5)ncnc3c2)CC1 [Saracatinib] + CS(=O)(=O)CCNCc1ccc(-c2ccc3ncnc(Nc4ccc(OCc5cccc(F)c5)c(Cl)c4)c3c2)o1 [Lapatinib] (partner 2 µM)
relative viability (LK-2; first compound 0.02 µM): 0.95 | relative viability (LK-2; first compound 0.2 µM): 0.715 | relative viability (LK-2; first compound 0.6325 µM): 0.725 | relative viability (LK-2; first compound 2 µM): 0.504 | relative viability (NCI-H727; first compound 0.02 µM): 0.688 | relative viability (NCI-H727; first compound 0.2 µM): 0.647 | relative viability (NCI-H727; first compound 0.6325 µM): 0.78 | relative viability (NCI-H727; first compound 2 µM): 0.587 | relative viability (BEN; first compound 0.02 µM): 0.745 | relative viability (BEN; first compound 0.2 µM): 0.541 | relative viability (BEN; first compound 0.6325 µM): 0.911 | relative viability (BEN; first compound 2 µM): 0.489 | relative viability (NCI-H520; first compound 0.02 µM): 0.853 | relative viability (NCI-H520; first compound 0.2 µM): 0.693 | relative viability (NCI-H520; first compound 0.6325 µM): 0.708 | relative viability (NCI-H520; first compound 2 µM): 0.574 | relative viability (NCI-H322M; first compound 0.02 µM): 0.639 | relative viability (NCI-H322M; first compound 0.2 µM): 0.607 | relative viability (NCI-H322M; first compound 0.6325 µM): 0.56 | relative viability (NCI-H322M; first compound 2 µM): 0.486 | relative viability (HCC-15; first compound 0.02 µM): 0.859 | relative viability (HCC-15; first compound 0.2 µM): 0.828 | relative viability (HCC-15; first compound 0.6325 µM): 0.961 | relative viability (HCC-15; first compound 2 µM): 0.854 | relative viability (EKVX; first compound 0.02 µM): 0.222 | relative viability (EKVX; first compound 0.2 µM): 0.165 | relative viability (EKVX; first compound 0.6325 µM): 0.238 | relative viability (EKVX; first compound 2 µM): 0.131 | relative viability (ABC-1; first compound 0.02 µM): 1.16 | relative viability (ABC-1; first compound 0.2 µM): 0.921 | relative viability (ABC-1; first compound 0.6325 µM): 1.08 | relative viability (ABC-1; first compound 2 µM): 0.921 | relative viability (HCC-44; first compound 0.02 µM): 1.01 | relative viability (HCC-44; first compound 0.2 µM): 0.902 | relative viability (HCC-44; first compound 0.6325 µM): 1.17 | relative viability (HCC-44; first compound 2 µM): 1.15 | relative viability (EMC-BAC-2; first compound 0.02 µM): 0.91 | relative viability (EMC-BAC-2; first compound 0.2 µM): 0.792 | relative viability (EMC-BAC-2; first compound 0.6325 µM): 0.945 | relative viability (EMC-BAC-2; first compound 2 µM): 0.761 | relative viability (CAL-12T; first compound 0.02 µM): 0.675 | relative viability (CAL-12T; first compound 0.2 µM): 0.678 | relative viability (CAL-12T; first compound 0.6325 µM): 0.791 | relative viability (CAL-12T; first compound 2 µM): 0.555 | relative viability (NCI-H1651; first compound 0.02 µM): 0.92 | relative viability (NCI-H1651; first compound 0.2 µM): 0.678 | relative viability (NCI-H1651; first compound 0.6325 µM): 0.873 | relative viability (NCI-H1651; first compound 2 µM): 0.695 | relative viability (NCI-H2023; first compound 0.02 µM): 1.33 | relative viability (NCI-H2023; first compound 0.2 µM): 0.701 | relative viability (NCI-H2023; first compound 0.6325 µM): 0.998 | relative viability (NCI-H2023; first compound 2 µM): 0.698 | relative viability (NCI-H460; first compound 0.02 µM): 0.886 | relative viability (NCI-H460; first compound 0.2 µM): 0.682 | relative viability (NCI-H460; first compound 0.6325 µM): 0.799 | relative viability (NCI-H460; first compound 2 µM): 1.05 | relative viability (NCI-H1563; first compound 0.02 µM): 0.941 | relative viability (NCI-H1563; first compound 0.2 µM): 0.778 | relative viability (NCI-H1563; first compound 0.6325 µM): 0.831 | relative viability (NCI-H1563; first compound 2 µM): 0.775 | relative viability (NCI-H358; first compound 0.02 µM): 0.471 | relative viability (NCI-H358; first compound 0.2 µM): 0.535 | relative viability (NCI-H358; first compound 0.6325 µM): 0.418 | relative viability (NCI-H358; first compound 2 µM): 0.384 | relative viability (201T; first compound 0.02 µM): 1 | relative viability (201T; first compound 0.2 µM): 0.856 | relative viability (201T; first compound 0.6325 µM): 0.998 | relative viability (201T; first compound 2 µM): 0.859 | relative viability (PC-3 [JPC-3]; first compound 0.02 µM): 0.439 | relative viability (PC-3 [JPC-3]; first compound 0.2 µM): 0.393 | relative viability (PC-3 [JPC-3]; first compound 0.6325 µM): 0.43 | relative viability (PC-3 [JPC-3]; first compound 2 µM): 0.402 | relative viability (COR-L 105; first compound 0.02 µM): 0.389 | relative viability (COR-L 105; first compound 0.2 µM): 0.281 | relative viability (COR-L 105; first compound 0.6325 µM): 0.311 | relative viability (COR-L 105; first compound 2 µM): 0.279 | relative viability (NCI-H838; first compound 0.02 µM): 0.979 | relative viability (NCI-H838; first compound 0.2 µM): 0.893 | relative viability (NCI-H838; first compound 0.6325 µM): 0.842 | relative viability (NCI-H838; first compound 2 µM): 0.655 | relative viability (LU99A; first compound 0.02 µM): 0.963 | relative viability (LU99A; first compound 0.2 µM): 0.748 | relative viability (LU99A; first compound 0.6325 µM): 0.969 | relative viability (LU99A; first compound 2 µM): 0.743
